One experiment has as its target T1, human KDR (Homo sapiens, UniProt P35968).
T1 construct: GST-tagged recombinant kinase domain of the human KDR; GST; made in house; host or cells: SF-9 insect cells
As to the kind of experiment: VEGFR2 Kinase (KDR) HTRF Assay. Type of experiment: biochemical. The conditions noted are these: GST-tagged kinase domain of human KDR, 10 μM ATP; read-out: KDR activity (assay 4). The text has this: Assay 4: VEGFR2 Kinase (KDR) HTRF Assay
KDR inhibitory activity of compounds of the present invention was quantified employing the KDR HTRF assay as described in the following paragraphs.
GST-tagged recombinant kinase domain of the human KDR expressed in SF-9 cells was used as kinase. As substrate for the kinase reaction the biotinylated peptide biotin-Ahx-DFGLARDMYDKEYYSVG (C-terminus in acid form) was used which can be purchased e.g. form the company Biosynthan GmbH (Berlin-Buch, Germany). KDR was incubated for 45 min at 22° C. in the presence of different concentrations of test compounds in 5 μl assay buffer [50 mM Hepes/NaOH pH 7.0, 25 mM MgCl2, 5 mM MnCl2, 1.0 mM dithiothreitol, 0.1 mM sodium ortho-vanadate, 10 μM adenosine-tri-phosphate (ATP), 0.5 μM substrate, 0.001% (v/v) Nonidet-P40 (Sigma), 1% (v/v) dimethylsulfoxide]. The concentration of KDR was adjusted depending of the activity of the enzyme lot and was chosen appropriate to have the assay in the linear range. The reaction was stopped by the addition of 5 μL of a solution of HTRF detection reagents (0.1 μM streptavidine-XLent and 2 nM PT66-Eu-Chelate, an europium-chelate Labelled anti-phospho-tyrosine antibody from Perkin Elmer) in an aqueous EDTA-solution (125 mM EDTA, 0.2% (w/v) bovine serum albumin in 50 mM HEPES/NaOH pH 7.0).
(§1) The resulting mixture was incubated 1 h at 22° C. to allow the binding of the biotinylated phosphorylated peptide to the streptavidine-XLent and the PT66-Eu-Chelate. Subsequently the amount of phosphorylated substrate was evaluated by measurement of the resonance energy transfer from the PT66-Eu-Chelate to the streptavidine-XLent. Therefore, the fluorescence emissions at 620 nm and 665 nm after excitation at 350 nm was measured in a HTRF reader, e.g. a Rubystar (BMG Labtechnologies, Offenburg, Germany) or a ViewLux (Perkin-Elmer). The ratio of the emissions at 665 nm and at […] was taken as the measure for the amount of phosphorylated substrate. The data were normalised (enzyme reaction without inhibitor=0% inhibition, all other assay components but no enzyme=100% inhibition) and IC50 values were calculated by a 4 parameter fit using an inhouse software.
A general note: Time-resolved FRET reads energy transfer from a long-lived donor to a nearby acceptor.

Another experiment addresses Tie2 (Homo sapiens, UniProt Q02763). Briefly: Tie-2-Kinase HTRF-Assay without kinase preactivation. Type of experiment: biochemical. The conditions noted are these: GST-Tie-2 intracellular domains, 10 μM ATP, read-out: Tie2 activity (assay 2). More on the design: fusion protein of GST and the intracellular domains of Tie-2; GST; made in house; host or cells: insect cells (Hi-5).
Source text: Tie2-inhibitory activity of compounds of the present invention was quantified employing two Tie2 HTRF assay as described in the following paragraphs.
A recombinant fusion protein of GST and the intracellular domains of Tie-2, expressed in insect cells (Hi-5) and purified by Glutathion-Sepharose affinity chromatography was used as kinase. Alternatively, commercially available GST-Tie2-fusion protein (Upstate Biotechnology, Dundee, Scotland) can be used As substrate for the kinase reaction the biotinylated peptide biotin-Ahx-EPKDDAYPLYSDFG (C-terminus in amid form) was used which can be purchased e.g. from the company Biosynthan GmbH (Berlin-Buch, Germany). Detection of phosphorylated product is achieved specifically by a trimeric detection complex consisting of the phosphorylated substrate, streptavidin-XLent (SA-XLent) which binds to biotin, and Europium Cryptate-labeled anti-phosphotyrosine antibody PT66 which binds to phosphorylated tyrosine.
Tie-2 (3.5 ng/measurement point) was incubated for 60 min at 22° C. in the presence of 10 μM adenosine-tri-phosphate (ATP) and 1 μM substrate peptide (biotin-Ahx-EPKDDAYPLYSDFG-NH2) with different concentrations of test compounds (0 μM and concentrations in the range 0.001-20 μM) in 5 μl assay buffer [50 mM Hepes/NaOH pH 7, 10 mM MgCl2, 0.5 mM MnCl2, 1.0 mM dithiothreitol, 0.01% NP40, protease inhibitor mixture (“Complete w/o EDTA” from Roche, 1 tablet per 2.5 ml), 1% (v/v) dimethylsulfoxide]. The reaction was stopped by the addition of 5 μl of an aqueous buffer (25 mM Hepes/NaOH pH 7.5, 0.28% (w/v) bovine serum albumin) containing EDTA (90 mM) and the HTRF (Homogeneous Time Resolved Fluorescence) detection reagents streptavidine-XLent (0.2 μM, from Cis Biointernational, Marcoule, France) and PT66-Eu-Chelate (0.3 ng/μl; a europium-chelate labelled anti-phospho-tyrosine antibody from Perkin Elmer).
as §1, with “substrate peptide” for “substrate”, “Viewlux” for “ViewLux”, “substrate peptide.” for “substrate.”

T1 sequence (P35968 834-1162 limits assumed): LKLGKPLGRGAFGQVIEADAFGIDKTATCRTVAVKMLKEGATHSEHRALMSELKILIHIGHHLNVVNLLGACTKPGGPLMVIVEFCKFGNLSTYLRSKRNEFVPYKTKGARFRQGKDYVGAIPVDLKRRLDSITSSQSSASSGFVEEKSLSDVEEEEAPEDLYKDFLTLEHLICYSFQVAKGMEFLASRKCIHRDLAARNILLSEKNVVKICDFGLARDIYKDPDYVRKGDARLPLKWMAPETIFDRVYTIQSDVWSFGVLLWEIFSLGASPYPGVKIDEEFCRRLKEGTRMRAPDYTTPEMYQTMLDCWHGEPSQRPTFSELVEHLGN
Chain of Tie2 (Q02763 770-1124 limits assumed): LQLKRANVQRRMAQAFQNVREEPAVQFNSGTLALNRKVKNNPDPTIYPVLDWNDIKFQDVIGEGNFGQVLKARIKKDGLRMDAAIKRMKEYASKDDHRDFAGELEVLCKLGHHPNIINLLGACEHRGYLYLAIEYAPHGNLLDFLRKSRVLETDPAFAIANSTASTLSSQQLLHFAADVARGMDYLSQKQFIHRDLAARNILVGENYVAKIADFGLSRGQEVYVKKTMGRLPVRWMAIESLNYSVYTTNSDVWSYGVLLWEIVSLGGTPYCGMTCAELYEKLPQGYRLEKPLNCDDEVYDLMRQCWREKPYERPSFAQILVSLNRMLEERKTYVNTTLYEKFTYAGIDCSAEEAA

Take `COc1ccc(C#Cc2cnc(Nc3ccc(S(C)(=N)=O)cc3)nc2N[C@H](C)CO)cc1` (mixture of isomers) [Example 1.1, (RS)—S-(4-[4-((R)-2-Hydroxy-1-methyl-ethylamino)-5-(4-methoxy-phenylethynyl)-pyrimidin-2-ylamino]-phenyl)-S-methylsulfoximide]: the IC50 at human KDR and at Tie2 was below 500 nM each time.

With `C[C@H](CO)Nc1nc(Nc2ccc(S(C)(=N)=O)cc2)ncc1C#Cc1ccccc1` (mixture of isomers) [Example 1.2, (RS)-S-(4-[4-((R)-2-Hydroxy-1-methyl-ethylamino)-5-(phenylethynyl)-pyrimidin-2-ylamino]-phenyl)-S-methylsulfoximide], the IC50 on human KDR and at Tie2 was below 500 nM each time.

As for `CCc1ccc(C#Cc2cnc(Nc3ccc(S(C)(=N)=O)cc3)nc2N[C@H](C)CO)cc1` (mixture of isomers) [Example 1.8, (RS)-S-(4-[5-(4-Ethyl-phenylethynyl)-4-((R)-2-hydroxy-1-methyl-ethylamino)-pyrimidin-2-ylamino]-phenyl)-S-methylsulfoximide], the IC50 at human KDR and on Tie2 was below 500 nM in each case.

Regarding `C[C@H](CO)Nc1nc(Nc2ccc(S(C)(=N)=O)cc2)ncc1C#Cc1ccc(F)cc1` (mixture of isomers) [Example 1.9, (RS)-S-(4-[5-(4-Fluoro-phenyl-ethynyl)-4-((R)-2-hydroxy-1-methyl-ethylamino)-pyrimidin-2-ylamino]-phenyl)-S-methylsulfoximide], the IC50 on human KDR and on Tie2 was below 500 nM each time.

For `Cc1cc(C#Cc2cnc(Nc3ccc(S(C)(=N)=O)cc3)nc2N[C@H](C)CO)ccc1F` (mixture of isomers) [Example 1.13, (RS)-S-(4-[5-(4-Fluoro-3-methyl-phenyl-ethynyl)-4-((R)-2-hydroxy-1-methyl-ethylamino)-pyrimidin-2-ylamino]-phenyl)-S-methylsulfoximide], the IC50 at human KDR and at Tie2 was below 500 nM in each case.

For `CC(C)NC(=O)N=S(C)(=O)c1cccc(Nc2ncc(C#Cc3cccc(O)c3)c(N[C@H](C)CO)n2)c1` (mixture of isomers) [Example 1.15, (RS)-S-(3-[4-((R)-2-Hydroxy-1-methyl-ethylamino)-5-(3-hydroxy-phenylethynyl)-pyrimidin-2-ylamino]-phenyl)-N-(isopropylcarbamoyl)-S-methylsulfoximide], the IC50 at human KDR and at Tie2 was below 500 nM in each case.

In the case of `COc1ccc(C#Cc2cnc(Nc3cccc(S(C)(=N)=O)c3)nc2N[C@H](C)CO)cc1` (mixture of isomers) [Example 1.17, (RS)-S-(3-[4-((R)-2-Hydroxy-1-methyl-ethylamino)-5-(4-methoxy-phenylethynyl)-pyrimidin-2-ylamino]-phenyl)-S-methylsulfoximide], the IC50 on human KDR and at Tie2 was below 500 nM each time.

In the case of `C[C@H](CO)Nc1nc(Nc2cccc(S(C)(=N)=O)c2)ncc1C#Cc1cccc(O)c1` (mixture of isomers) [Example 1.18, (RS)-S-(3-[4-((R)-2-Hydroxy-1-methyl-ethylamino)-5-(3-hydroxy-phenylethynyl)-pyrimidin-2-ylamino]-phenyl)-S-methylsulfoximide], the IC50 at human KDR and on Tie2 was below 500 nM in each case.

With `Cc1ccccc1C#Cc1cnc(Nc2cccc(S(C)(=N)=O)c2)nc1N[C@H](C)CO` (mixture of isomers) [Example 1.19, (RS)-S-(3-[4-((R)-2-Hydroxy-1-methyl-ethylamino)-5-(2-methyl-phenylethynyl)-pyrimidin-2-ylamino]-phenyl)-S-methylsulfoximide], the IC50 on human KDR and on Tie2 was below 500 nM each time.

In the case of `Cc1cc(C#Cc2cnc(Nc3cccc(S(C)(=N)=O)c3)nc2N[C@H](C)CO)ccc1F` (mixture of isomers) [Example 1.20, (RS)-S-(3-[5-(4-Fluoro-3-methyl-phenyl-ethynyl)-4-((R)-2-hydroxy-1-methyl-ethylamino)-pyrimidin-2-ylamino]-phenyl)-S-methylsulfoximide], the IC50 at human KDR and at Tie2 was below 500 nM each time.

Take `Cc1ccccc1C#Cc1cnc(Nc2ccc(S(C)(=N)=O)cc2)nc1N[C@H](C)CO` (mixture of isomers) [Example 1.3]: the IC50 at human KDR and at Tie2 was below 500 nM each time.

In the case of `Cc1ccc(C#Cc2cnc(Nc3ccc(S(C)(=N)=O)cc3)nc2N[C@H](C)CO)cc1` (mixture of isomers) [Example 1.5], the IC50 at human KDR and at Tie2 was below 500 nM in each case.

With `CCNc1nc(Nc2ccc(S(C)(=N)=O)cc2)ncc1C#Cc1ccc(F)c(C)c1` (racemic) [Example 1.24, (RS)-S-(4-[4-ethylamino-5-(4-fluoro-3-methyl-phenyl-ethynyl)-pyrimidin-2-ylamino]-phenyl)-S-methylsulfoximide], the IC50 at human KDR and on Tie2 was below 500 nM each time.

As for `CCNc1nc(Nc2ccc(S(C)(=N)=O)cc2)ncc1C#Cc1ccc(OC)cc1` (racemic) [Example 1.26, (RS)-S-(4-[4-ethylamino-5-(4-methoxy-phenyl-ethynyl)-pyrimidin-2-ylamino]-phenyl)-S-methylsulfoximide], the IC50 on human KDR and at Tie2 was below 500 nM in each case.

As to `CCOC(=O)N=S(C)(=O)c1ccc(Nc2ncc(C#Cc3cccc(O)c3)c(N[C@H](C)CO)n2)cc1` (mixture of isomers) [Example 2.7], the IC50 at human KDR and at Tie2 was below 500 nM each time.

`CS(=N)(=O)c1cccc(Nc2ncc(C#Cc3cccc(O)c3)cn2)c1` (racemic) [Example 4.2, (RS)—S-(3-[5-(3-hydroxy-phenylethynyl)-pyrimidin-2-ylamino]-phenyl)-S-methylsulfoximide]: the IC50 on human KDR and on Tie2 was below 500 nM in each case.

Source of the values: patent US8642611B2, “Alkynylpyrimidines and salts thereof, pharmaceutical compositions comprising same, methods of preparing same and uses of same” (Bayer Intellectual Property GmbH, priority 2007, dated 2014).
